Values joined by “and” are separate entries in the source; they are usually repeats but may differ in a detail not shown here. Identical values can stand only once. Like-named read-outs stand apart in the source and are kept apart here.
Columns and labels:
[1] = Production of singlet oxygen, Singlet Oxygen Green Sensor, steady state fluorometer; details: for singlet oxygen sensor fluorescence with scavenger sodium azide added: 32 J/cm^2
Experimental: Dyes and conjugated probes (IRDye 700DX carboxylate (700DX), EGF, RGD, and IgG conjugates) were evaluated for production of singlet oxygen using Singlet Oxygen Green Sensor (Life Technologies) and measured by a steady state fluorometer (ex 504 nm/em 525 nm). Controls (water or DMEM medium) and a positive control of methylene blue (MB) were included.
Measurements were made every second for 30 sec and averaged. Solution makeup: SOGS (1 μM), dye or probe addition (10 μM), Tris pH 7.5 ([…]) and deuterium oxide (50%). Light exposure=32 J/cm^2.

[2] = Clearance and biodistribution of IRDye 700DX carboxylate by fluorescence imaging; type: in vivo, nude mice
Experimental: Experiments were performed to evaluate the clearance of IRDye® 700DX carboxylate in nude mice receiving 2 or 4 nmoles of the compound. This is the non-reactive form of the dye and the in vivo elimination kinetics can be used to determine the biodistribution of the dye and a subsequent dye-labeled conjugate. The results for both doses were very similar (only 4 nmole animal images are presented). Clearance appeared to be renal as noted in the dorsal (FIG. 8A) and ventral whole body views (FIG. 9A). The kidneys are visible throughout the dorsal series (FIG. 8A) and liver negligible in ventral series (FIG. 9A). […] A closer examination of the organs after excision is illustrated in FIG. 10B (2 nmole dose). […] All organs imaged (muscle, heart, lungs, liver, brain, spleen, intestine, and kidneys) were analyzed for signal corrected for area.

[3] = tested on: serum proteins including albumin (human serum albumin, bovine serum albumin, 5% FBS); experiment: Binding of dye to serum proteins, incubation in 1×PBS and 4-12% Bis-Tris gel
Experimental: In SDS-PAGE and under non-reducing conditions, ovalbumin has a molecular weight of about 40 kDa, 45 kDa, 63 kDa and 72 kDa. Human serum albumin (HSA) has a molecular with ranging from about 66.6 kDa to about 66.4 kDa or lower under non-reducing conditions. HSA can migrate as an approximately 58-67 kDa band in SDS-PAGE under reducing conditions.
Human serum albumin, bovine serum albumin, 5% FBS and IRDye® 700DX carboxylate were incubated in 1×PBS for 2.5 h at room temperature. Methylene blue was also used as a dye known to bind to albumin and the other serum proteins. The samples were run on a 4-12% Bis-Tris gel. Ovalbumin served as the negative control. The proteins incubated with IRDye® 700DX carboxylate are on the left of the gel and methylene blue samples are on the right (FIG. 4A-B).

[4] = Stability of IRDye 700DX carboxylate (signal intensity) in PBS and in buffers of pH 2.1-8.2; type: physicochemical; details: 37° C.
Experimental: Evaluation of the effect of pH on the stability of the carboxylate form of the dye was performed at room temperature and at 37° C. For comparison purposes a test of the stability at 37° C. while dissolved in 1×PBS was included. Mcllaine's buffer solution with constant ionic strength was used. […] When the dye was dissolved in various buffers with increasing pH (2.1-8.2) a loss in signal intensity initially occurred between pH 4 and 5 with losses progressively increasing down to pH 2.1 at room temperature (FIG. 3A). At 37° C. this loss initially occurred at a slightly higher pH between pH 5-6 with a progression similar to the tests done at room temperature (FIG. 3B).

A431 cells [5] = experiment: Cytotoxicity and localization of antibody probe versus small protein ligand probe after irradiation (Example 4); type: cell-based
Experimental: Both probes can bind EGFR and had approximately 2 dye molecule per conjugate molecule. It was assumed that the affinity for the receptor will be different for the antibody (generally pM), compared to the small protein (nM). Although the probe doses were different, the incubation times were the same at only 10 min. After incubation, the probes were rinsed from the cells. FIGS. 7A and 7B illustrates A431 cells that were incubated with IRDye 700DX-panitumumab or IRDye 700DX-EGF, respectively and thereafter irradiated.
Thus, upon irradiation, the production of singlet oxygen occurred at the cell surface. Typically, the EGF ligand is internalized after binding the EGF receptor.

A431 cells [6] = experiment: Unlabeled versus IRDye 700DX-labeled panitumumab with and without irradiation (Example 5); type: cell-based; details: 10 minutes incubation
Experimental: Although the assumption is that the doses used in the assay described herein are too low to be a contributing factor in the cell death seen with IRDye® 700DX-labeled panitumumab, a small study was conducted to confirm that no therapeutic effect is due to the assay system. The test included the following four treatments: treatment 1 of unlabeled panitumumab and no irradiation (FIG. 11A), treatment 2 of IRDye® 700DX-labeled panitumumab and no irradiation (FIG. 11B), treatment 3 of unlabeled panitumumab and irradiation (FIG. 11C), and treatment 4 of IRDye® 700DX-labeled panitumumab and irradiation (FIG. 11D). The irradiation dose was 24 J/cm^2 with the probe incubation of 10 minutes and a concentration of 0.1 μM.

A431 cells [7] = experiment: VB-48 assay: vitality, viability and necrosis of treatments 1-10 (Table 3); type: cell-based
Experimental: Briefly, A431 cells were labeled with respective probes for specific treatments (listed below); cells were rinsed and evaluated for labeling. The test include the following treatments: […], treatments 3-4 of EGF-IRDye® 700DX at 0.5 μM and radiation, treatments 5-6 of IRDye® 700DX NHSe at 5 μM and radiation, treatments 7-8 of panitumumab-IRDye® 700DX at about 0.1 μM and radiation, treatment 9 of a negative control with no probe and no irradiation, and treatment 10 of RGD-IRDye® 700DX and no irradiation. The probes were incubated for about 10 minutes and with a longer period of about 20 minutes for the RGD probe. The cells were monitored with microscopy and morphology was examination 24 hours post treatment.
Low binding was expected for the RGD probe due to the low level of integrin receptors on A431 cells. […] By 3 hours post-irradiation all treatments except RGD (Treatment 1) show significant cytotoxicity. Vitality, viability and necrosis assays such as a VB-48 assay and JC-1 assay were performed.

A431 cells [8] = type: cell-based; details: 32 J/cm^2
Experimental: A different LED source was tested and evaluated to determine if a second source of LED would yield a similar effect as the standard LED used. A straight forward evaluation was set up with four treatments (treatments A-D). The tests were performed in triplicate in order to examine reproducibility. The test included the following four treatments: treatment A of no probe and irradiation, treatment B of IRdye® 700DX-labeled EGF and no irradiation, treatment C of IRDye® 700DX-labeled EGF and irradiation, and treatment D of IRDye® 700DX-labeled panitumumab and irradiation. The probe dose was about 0.1 μM labeled panitumumab and 0.5 μM 700DX-labeled EGF. Irradiation was for 10 minutes at an irradiation dose of 32 J/cm^2.
Significant and similar effects for both probes together and in triplicate thus providing clear evidence that IRDye® 700DX-labeled small protein can kill cells similarly to an IRDye 700DX-labeled antibody. Conditions for use of either probe may be unique to the individual probe. […] The fluorescent scale of the 700 nm images was the same for both treated sets of cells (FIGS. 12C-12D). Although the exact concentration of the antibody probe is not known, the signals from the different probes appear similar in level and intensity.

[9] = 2.5 h incubation, room temperature
[10] = irradiation 24 J/cm^2, 0.1 μM, 24 hours post-treatment
[11] = no irradiation, 0.1 μM, 24 hours
[12] = irradiated (I) 32 J/cm^2, RGD 0.5 μM, EGF 0.5 μM, NHSe 5 μM, Pan ~0.1 μM
[13] = irradiated (I) 10 minutes, 700DX-EGF 0.5 μM, 700DX-Pan about 0.1 μM

With “silicate(5-), bis[N— [3-[(hydroxy-.kappa.O)dimethylsilyl]propyl]-3-sulfo-N,N-bis(3-sulfopropyl)-1-propanaminiumato(4-)][6-[[[3-[(29H,31H-phthalocyanin-yl-.kappa.N29, .kappa.N30, .kappa.N31, .kappa.N32)oxy]propoxy]carbonyl]amino]hexanoato(3-)]-, sodium (1:5) [IRDye® 700DX carboxylate]” the “singlet oxygen sensor fluorescence with scavenger sodium azide added” value [1] was “reduction in fluorescence”, the “primary location of the dye in the kidney (longitudinal slice)” value ([2]; 4 nmole dose) was “proximal tubules of the renal cortex” and the “signal in organs other than the liver and kidney” value ([2]; 24 hours after injection) was “little to no signal”. For the same compound, the “retention in the liver” value ([2]; nude mice, 2 or 4 nmoles) was “no significant retention in the liver”, the route of clearance ([2]; nude mice, 2 or 4 nmoles, 5 minutes to 24 hours) was “renal” and the “binding to the serum proteins including albumin” value (“binding” below) ([3]; 1 h post-incubation) was “not detected”. For the same compound, the “binding” value [3, 9] was “evident”, the “loss of signal intensity (stability)” value ([4]; 1×PBS, 1 μM) was “very little loss of signal intensity” and the “pH at which a loss in signal intensity initially occurred” value ([4]; buffers of increasing pH) was 5-6 pH.

For CN(C)c1ccc2nc3ccc(=[N+](C)C)cc-3sc2c1 [methylene blue], the “increase of singlet oxygen sensor fluorescence” value ([1]; dye or probe 10 μM, SOGS 1 μM, light exposure 32 J/cm^2 (690 nm)) was “Three- to four-fold”, the “singlet oxygen sensor fluorescence with scavenger sodium azide added” value [1] was “reduction in fluorescence” and the “binding” value [3, 9] was “Signal is present”.

For 700DX-Pan [reference compound], the dead irradiated cells (A431 cells [5]; 10 min incubation, panitumumab probe about 0.1 μM, EGF probe 0.5 μM, 24 hours post irradiation) was 62%, the “necrotic cells after irradiation” value (A431 cells [5]; irradiation 24 J/cm^2 (figure legend)) was 62% and the “induction of cell death (morphology)” value (A431 cells [6]; [10]) was “effectively induced cell death”. The “induction of cell death (morphology)” value (A431 cells [6]; [11]) was “No measurable effect”, the “% Healthy” value (A431 cells [7]; [12]) was 15.0% and the “% Necrotic” value (A431 cells [7]; [12]) was 70%. For the same compound, the Cells/mL (A431 cells [7]; [12]) was 1.2 × 10^5 Cells/mL, the “Est % Viability” value (A431 cells [7]; [12]) was 30-40% and the “Low % Vitality” value (A431 cells [7]; [12]) was 15%. The cytotoxicity by microscopy (A431 cells [7]; irradiated, up to 3 hours post-irradiation) was “most effective”, the “effect on cells (morphology)” value (A431 cells [8]; irradiated 10 minutes) was “severely affected by the irradiating energy and were dying” and the Cells/mL (A431 cells [8]; [13]) was 2.8 × 10^5 Cells/mL and 4.2 × 10^5 Cells/mL and 2.3 × 10^5 Cells/mL. The VB-48 % necrotic (A431 cells [8]; [13]) was 67% and 87%.

With “unlabeled panitumumab: unlabeled antibody that binds EGFR” the “induction of cell death (morphology)” value (A431 cells [6]; [10]) was “No measurable effect” and the “induction of cell death (morphology)” value (A431 cells [6]; [11]) was “No measurable effect”.

Reference: patent US10588972B2, “Phthalocyanine probes and uses thereof” (LI-COR, INC., priority 2014, dated 2020)
